Measurements reported in paper PMC12563821 (International Journal of Molecular Sciences, 2025).

Legend:
Sirt3 = system: T1, Sirt3; experiment: Fluorescence-based Sirt3 subtype selectivity assay (Reaction Biology); assay type: biochemical; settings: 50 µM inhibitor, duplicate, relative to no-inhibitor control
T1 construct: spans amino acids 101–399; GST (N); purchased Reaction Biology Corporation (Malvern, PA, USA), in-house enzyme of the contract laboratory; host or cells: E. coli
Protocol: (§1) The determination of the inhibitory potency and corresponding subtype selectivity of the synthesized hybrid candidates was performed by Reaction Biology Cooperation (Malvern, PA, USA) using a fluorescence-based assay (Table 1).
(§2) Sirtuin assays. The biological activity of the test substances against the respective sirtuin enzymes was evaluated by means of a fluorescence-based assay performed by Reaction Biology Corporation (Malvern, PA, USA). The sirtuin enzymes used in the assays were all obtained from in-house sources at Reaction Biology Corporation (Malvern, PA, USA). Sirt1, with accession number NM_012238, includes amino acids 1–747 (C-terminal) and is tagged with an N-terminal His-tag. Sirt1 was expressed in E. coli and purified to greater than 85% as confirmed by SDS-PAGE and is supplied as a solution in 50 mM Tris/HCl (pH 7.5), 100 mM NaCl, and 10% glycerol (v/v). Sirt2 (accession number NM_012237), comprising amino acids 50–389 (C-terminal), features an N-terminal His-tag and was expressed in E. coli and finally purified to over 90% by SDS-PAGE. Sirt2 is provided in a buffer containing 50 mM Tris/HCl (pH 7.5), 500 mM NaCl, 1 mM TCEP, and 10% glycerol (v/v). Sirt3, with accession number NM_012239.3, spans amino acids 101–399 and is tagged with an N-terminal GST and expressed in E. coli and purified to greater than 85% purity by SDS-PAGE. Sirt3 is supplied in 50 mM Tris/HCl (pH 7.5), 500 mM NaCl, and 10% glycerol (v/v). Sirt5 (accession number NM_012241), consisting of amino acids 37–310 (C-terminal) and tagged with an N-terminal His-tag, was expressed in E. coli, purified to greater than 95% purity by SDS-PAGE and delivered as a solution in 50 mM Tris/HCl (pH 7.5), 500 mM NaCl, 1 mM TCEP, and 10% glycerol (v/v). All proteins were provided in purified forms for use in the assays. The respective internal assay protocol is outlined in the following: After the test substances (dissolved in DMSO) were incubated with the desired sirtuin enzyme in assay buffer (Tris-HCl, pH = 8) for 10 min at 30 °C, a substrate mixture consisting of a 7-amino-4-methylcoumarin-linked fluorogenic peptide substrate (p53 residues 379–382) and the cofactor NAD^+ was added. After 2 h of incubation at 30 °C, the universal inhibitor nicotinamide was added in excess to completely stop the deacetylation reaction, followed by the addition of a protease-based developer to release 7-amino-4-methylcoumarin, resulting in characteristic fluorescence, which was measured after 1 h at 30 °C (excitation/emission = 360/460). A no-inhibitor control was implemented, serving as a reference for 100% enzyme activity. […] Three individual IC50 values per test compound were calculated from the corresponding three dilution series fluorescence data using sigmoidal curve fitting in Prism 8.0.2 (GraphPad Software, Boston, MA, USA), and these were averaged to determine the mean IC50 value along with the standard deviation. To assess the selectivity against Sirt1, Sirt3, and Sirt5, a 50 µM concentration of the test compound was tested in duplicate, and the inhibitory activity was expressed as the mean of the duplicates in percentage of enzyme activity, including standard deviation, relative to the no-inhibitor control (representative 100% enzyme activity).

[1] = MTT-based cell viability assay; parameters: species or system human; settings: human; HL-60 cells, 24 h incubation, MTT; read-out: IC50 acute cytotoxicity
Protocol: The SirReal-based Sirt2 inhibitors (FM345, FM352, FM358, FM368, RW-93, RW-95 and RW-99) were tested for potential acute cytotoxicity to human cells in an MTT-based cell viability assay. […] HL-60 cells were treated with the corresponding Sirt2 inhibitors at various concentrations and then incubated for 24 h. […] Representative cell viability results following treatment with RW-93 are shown in Figure S1 of the Supplementary Materials.
Cell viability assay. The cytotoxicity of the Sirt2 inhibitors was determined using a colorimetric MTT assay following Mosmann’s protocol. HL-60 cells (purchased from DSMZ (German Collection of Microorganisms and Cell Cultures, Deutsche Sammlung von Mikroorganismen und Zellkulturen GmbH, Braunschweig, Germany) were cultivated in RPMI medium with 10% fetal bovine serum at 37 °C with 5% CO2 atmosphere. The cells were then seeded in a 96-well plate with a concentration of 9 x 10^4 cells/well and a well volume of 99 µL. The cells were further incubated at 37 °C with 5% CO2 atmosphere for 24 h. The cells were then treated with 1 µL solution of Sirt2 inhibitors in various concentrations, which were prepared from 10 mM or 20 mM DMSO stock solutions. Negative controls were treated with 1 µL DMSO and positive controls with 1 µL of 1% Triton-X solution. Three technical replicates were performed. After incubation for 24 h, 10 µL MTT (5.0 mg/mL in PBS) were added to each well and the cells were incubated at 37 °C with 5% CO2 atmosphere for 2 h. Then 190 µL DMSO were added to each well and the plate shaken at room temperature at 600 rpm for 1 h with light exclusion. The absorbance of the MTT metabolite formazan was measured at 570 nm using the MRX Microplate Reader (Dynex Technologies, Chantilly, VA, USA). The means of the corresponding triplicates were calculated and set in relation to the 1% DMSO negative controls. The data was processed using Prism 8.0.2 (GraphPad Software, Boston, MA, USA) software and a logarithmic sigmoidal curve fitting for the calculation of the respective IC50 values was performed.

Sirt1 = system: T2, Sirt1; experiment: Fluorescence-based Sirt1 subtype selectivity assay (Reaction Biology); assay type: biochemical; settings: 50 µM inhibitor, duplicate, relative to no-inhibitor control
T2 construct: includes amino acids 1–747 (C-terminal); His-tag (N); purchased Reaction Biology Corporation (Malvern, PA, USA), in-house enzyme of the contract laboratory; host or cells: E. coli
Protocol: as §1, §2

Sirt5 = system: T3, Sirt5; experiment: Fluorescence-based Sirt5 subtype selectivity assay (Reaction Biology); assay type: biochemical; settings: 50 µM inhibitor, duplicate, relative to no-inhibitor control
T3 construct: consisting of amino acids 37–310 (C-terminal); His-tag (N); purchased Reaction Biology Corporation (Malvern, PA, USA), in-house enzyme of the contract laboratory; host or cells: E. coli
Protocol: as §1, §2

Structure (SMILES) | Residual Enzyme Activity [%] ± SD Sirt3 (Sirt3) [%] | IC50 at 24 h [1] [µM] | Residual Enzyme Activity [%] ± SD Sirt1 (Sirt1) [%] | Residual Enzyme Activity [%] ± SD Sirt5 (Sirt5) [%]
Cc1cc(C)nc(SCC(=O)Nc2ncc(COc3ccc(NC(=O)c4cnn(C)c4)c(I)c3)s2)n1 [RW-95, N-(4-((2-(2-((4,6-Dimethylpyrimidin-2-yl)thio)acetamido)thiazol-5-yl)methoxy)-2-iodophenyl)-1-methyl-1H-pyrazole-4-carboxamide] | 64.2 ± 1.2 | > 50 | 60.9 ± 0.7 | 48.2 ± 1.8
Cc1cc(C)nc(SCC(=O)Nc2ncc(COc3ccccc3)s2)n1 [FM345, 2-((4,6-Dimethylpyrimidin-2-yl)thio)-N-(5-(phenoxymethyl)thiazol-2-yl)acetamide] | 78.8 ± 0.8 | > 50 | 95.6 ± 2.3 | 94.6 ± 2.3
Cc1cc(C)nc(SCC(=O)Nc2ncc(COc3cccc4ccccc34)s2)n1 [FM368, 2-((4,6-Dimethylpyrimidin-2-yl)thio)-N-(5-((naphthalen-1-yloxy)methyl)thiazol-2-yl)acetamide] | 85.0 ± 0.5 | > 50 | 88.5 ± 2.7 | 89.1 ± 1.4
Cc1cc(C)nc(SCC(=O)Nc2ncc(COc3ccc(NC(=O)c4cnn(C)c4)cc3)s2)n1 [FM358, N-(4-((2-(2-((4,6-Dimethylpyrimidin-2-yl)thio)acetamido)thiazol-5-yl)methoxy)-phenyl)-1-methyl-1H-pyrazole-4-carboxamide] | 62.5 ± 0.1 | > 50 | 71.9 ± 0.6 | 79.8 ± 0.6
Cc1cc(C)nc(SCC(=O)Nc2ncc(COc3ccc(NC(=O)c4cccs4)cc3)s2)n1 [FM352, N-(4-((2-(2-((4,6-Dimethylpyrimidin-2-yl)thio)acetamido)thiazol-5-yl)methoxy)phenyl)thiophene-2-carboxamide] | 75.8 ± 5.3 | > 50 | 101 ± 1 | 75.6 ± 1.1
Cc1cc(C)nc(SCC(=O)Nc2ncc(COc3ccc(NC(=O)c4cnn(C)c4)c(Br)c3)s2)n1 [RW-93, N-(2-Bromo-4-((2-(2-((4,6-dimethylpyrimidin-2-yl)thio)acetamido)thiazol-5-yl)-methoxy)phenyl)-1-methyl-1H-pyrazole-4-carboxamide] | 62.3 ± 1.2 | > 50 | 58.2 ± 0.2 | 53.0 ± 0.2
